Data on one compound can be found in publication PMC4579270, “Identification and Characterization of an Irreversible Inhibitor of CDK2” (Chemistry & Biology, 2015).

In assay [1] the test system is phosphorylation of Rb at Thr821 in SKUT-1B cells. The assay can be described thus: Inhibition of Rb phosphorylation in cells (western blot). The format is cell-based. To be noted: Homo sapiens, Skut1B, 1 hr exposure. The procedure: The cellular potency of NU6300 was examined by measuring the inhibition of Rb phosphorylation following exposure of SKUT-1B cells to the inhibitor for 1 hr. Pre-incubation with 50 μM NU6300 inhibited phosphorylation of Rb at […], a known CDK2 phosphorylation site, by 43%. […] This difference just reached statistical significance (p = 0.04). […] Representative of three different experiments. […] Protein expression levels of phospho-Rb ([…]) were normalized to the levels of total Rb in respective samples using densitometry. Relative protein expression levels are presented as percentage of inhibition of phosphorylation of Rb ([…]) compared with the control cells for each time point. Error bars represent the mean value and SD from three independent experiments. Statistical analysis was performed using the unpaired Student's t test, one-tailed. Western blot analysis was carried out as described previously ([Thomas et al., 2011]) using rabbit anti-[…] phospho-Rb antibody (Invitrogen) or mouse antihuman Rb antibody (BD Pharmingen) to detect phosphorylated and total retinoblastoma protein, respectively. Sample preparation is described in Supplemental Experimental Procedures. page 14: formate) before cryo-coolling. Data processing was carried out using programs of the CCP4 suite (CCP4, 1994). The structure of NU6300 bound to CDK2/cyclin A was solved by molecular replacement using Phaser (McCoy et al., 2007), using as the search model a high-resolution structure of a recruitment peptide bound to CDK2/cyclin A ((Cheng et al., 2006) PDB code 2CCH). A single clear solution was found with an inhibitor bound to each of the two copies of the binary complex in the asymmetric unit. This solution was then subjected to rigid body refinement in REFMAC (Murshudov et al., 1997), to reveal unambiguous electron density in the CDK2 ATP-binding site, consistent with the expected shape of the inhibitor. A model of NU6300 was created using Coot (Emsley et al., 2010). The inhibitor atoms were kept in all subsequent models during refinement carried out by additional rounds of manual rebuilding in Coot and restrained refinement in REFMAC5, including TLS refinement. Towards the end of refinement, waters were added using the Coot water picking utility and manually verified. Western blotting SKUT-1B cells (ATCC, Manassas, USA) were grown in MEM medium supplemented with non-essential amino acids, L-Glutamine, sodium pyruvate and 10% (v/v) foetal calf serum (Sigma, UK). […] Cells were harvested at different time points after the washout and lysed by adding PhosphoSafe extraction reagent (Merck, UK) containing protease inhibitor cocktail (Roche, UK) at the manufacturer's recommended dilution. The harvested cell suspension was placed in an eppendorf tube on ice, centrifuged at 13,000x g for 5 min, and the supernatant (cell lysate) removed for analysis. Subsequent western blot analysis was carried out as described in (Thomas et al., 2011) using rabbit anti-[…] phospho-Rb antibody (Invitrogen, Paisley, UK Cat No. 44-[…]) or mouse anti-human Rb antibody (BD Pharmingen, Oxford, UK Cat No. 554136) to detect phosphorylated and total retinoblastoma protein, respectively.
Background: In western blotting, separated proteins are transferred to a membrane and probed.

The target of a further assay is Lck (Homo sapiens, UniProt P06239). The assay can be described thus: Dundee kinase screen re-test (standard format and 4 hour pre-incubation). It is filed as biochemical. On the procedure:
(§1) Prior to determining its cellular activity, we carried out a screen to assess its selectivity against a panel of 131 protein kinases under conditions that would not distinguish between a reversible or irreversible mode of action. […] These 13 kinases and 29 additional kinases, selected for their known sensitivity to other inhibitors within the purine series, were then tested in a modified screening format in which the assay was repeated following a 4-hr pre-incubation (Table S3B). […] However, conformational flexibility around the active site may promote such an interaction with a residue from another part of the structure ([Martin et al., 2012]).
(§2) Table S3, Related to Figure 4. NCL-0006300 protein kinase selectivity. (A) NU6300 was tested at a single concentration of 1µM against 131 protein kinases present in a Dundee protein kinase screen (Bain et al., 2007). Values given are % activity remaining and are the average of duplicate measurements: 0-25% (red), 26-50% (yellow), 51-80% (black) and above 81% (green). The kinase domain sequences (as defined by UniProt) of […]
(§3) have a lysine residue at a position close to CDK2 Lys88 or Lys89. However, in the structure of tyrosine-protein kinase BTK (PDB ID: 3GEN) the residue equivalent to CDK2 Asp86 is Cys481 and therefore there is the potential for a covalent adduct to be formed through this side chain. Ephrin type-B receptor 3 (UniProt entry P54753) also encodes a cysteine residue (Cys717) that by sequence alignment would be predicted to be close to the CDK2 lysine pair. (B) Selected kinases were re-tested in the Dundee kinase screen against NU6300 at a single concentration of 0.5 µM both in the standard assay format and following a 4 hour pre-incubation in the presence of NU6300. Kinases which have very low activity after the 4 hour incubation so that results might not be wholly reliable are boxed in salmon. Kinases where the activity after a 4 hour pre-incubation is < 50% that in the standard assay format are highlighted in red.

The next assay has as its target T1, MST2 (Homo sapiens, UniProt Q13188).
T1 sequence (Q13188 1-491): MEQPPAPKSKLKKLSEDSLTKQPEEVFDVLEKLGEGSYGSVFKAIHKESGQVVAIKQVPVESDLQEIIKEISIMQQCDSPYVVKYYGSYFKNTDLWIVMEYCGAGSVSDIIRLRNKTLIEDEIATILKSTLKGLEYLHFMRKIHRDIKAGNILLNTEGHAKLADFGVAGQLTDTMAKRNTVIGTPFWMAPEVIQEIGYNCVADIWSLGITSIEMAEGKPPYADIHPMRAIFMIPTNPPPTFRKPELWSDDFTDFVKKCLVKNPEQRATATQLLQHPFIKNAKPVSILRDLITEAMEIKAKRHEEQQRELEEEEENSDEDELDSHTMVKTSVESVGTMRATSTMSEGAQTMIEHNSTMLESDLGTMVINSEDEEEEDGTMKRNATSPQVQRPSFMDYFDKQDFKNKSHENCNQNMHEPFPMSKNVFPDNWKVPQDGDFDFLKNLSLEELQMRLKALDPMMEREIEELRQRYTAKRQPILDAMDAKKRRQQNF
The assay is described as above. As to conditions: for remaining activity at 0.5 µM: MST2, 0.5µM. The format is biochemical. On the procedure:
as §1, §2, §3

A further assay has as its target PRK2 (Homo sapiens, UniProt Q16513). The assay is described as above. The format is biochemical. To be noted: PRK2, 0.5µM. The procedure:
as §1, §2, §3

[2] abbreviates: 4hr RT preincubation, read-out: %Remaining activity at 0.5µM NU6300 - 4hr RT preincubation.
The mark [3] stands for this setting: usual format, read-out: %Remaining activity at 0.5µM NU6300 - Usual assay format.

A word on the inhibition: it is the percentage by which the read-out fell short of the control. Broadly, the remaining activity is the activity still measured, relative to the control.

Like-named read-outs stand apart in the source and are kept apart here.

PRK2, sequence (Q16513 whole entry): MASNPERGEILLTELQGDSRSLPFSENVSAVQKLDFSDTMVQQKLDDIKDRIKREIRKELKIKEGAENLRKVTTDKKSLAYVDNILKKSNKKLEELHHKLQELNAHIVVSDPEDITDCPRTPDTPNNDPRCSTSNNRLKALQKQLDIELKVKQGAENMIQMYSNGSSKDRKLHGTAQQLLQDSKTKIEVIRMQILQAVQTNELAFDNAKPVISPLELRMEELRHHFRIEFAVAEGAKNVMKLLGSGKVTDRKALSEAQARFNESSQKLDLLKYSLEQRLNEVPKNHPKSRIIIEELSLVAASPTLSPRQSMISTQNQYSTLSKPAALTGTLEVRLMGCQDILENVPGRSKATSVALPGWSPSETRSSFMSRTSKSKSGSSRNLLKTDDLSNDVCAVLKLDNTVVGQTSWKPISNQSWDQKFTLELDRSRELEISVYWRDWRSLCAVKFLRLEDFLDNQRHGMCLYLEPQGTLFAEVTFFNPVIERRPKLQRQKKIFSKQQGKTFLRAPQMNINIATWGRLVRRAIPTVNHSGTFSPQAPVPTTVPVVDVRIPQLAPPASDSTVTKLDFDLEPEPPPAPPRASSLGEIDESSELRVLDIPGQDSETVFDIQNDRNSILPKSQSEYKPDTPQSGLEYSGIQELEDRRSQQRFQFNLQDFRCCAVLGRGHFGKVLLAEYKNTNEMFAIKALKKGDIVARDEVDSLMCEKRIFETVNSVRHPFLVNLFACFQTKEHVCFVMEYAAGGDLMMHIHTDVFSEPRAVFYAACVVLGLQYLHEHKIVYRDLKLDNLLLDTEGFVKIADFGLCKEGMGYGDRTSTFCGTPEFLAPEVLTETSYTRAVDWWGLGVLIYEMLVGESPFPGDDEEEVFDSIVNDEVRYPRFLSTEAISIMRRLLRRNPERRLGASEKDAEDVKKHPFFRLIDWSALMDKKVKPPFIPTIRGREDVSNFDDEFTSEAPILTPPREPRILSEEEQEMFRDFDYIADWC
Lck, sequence (P06239 whole entry): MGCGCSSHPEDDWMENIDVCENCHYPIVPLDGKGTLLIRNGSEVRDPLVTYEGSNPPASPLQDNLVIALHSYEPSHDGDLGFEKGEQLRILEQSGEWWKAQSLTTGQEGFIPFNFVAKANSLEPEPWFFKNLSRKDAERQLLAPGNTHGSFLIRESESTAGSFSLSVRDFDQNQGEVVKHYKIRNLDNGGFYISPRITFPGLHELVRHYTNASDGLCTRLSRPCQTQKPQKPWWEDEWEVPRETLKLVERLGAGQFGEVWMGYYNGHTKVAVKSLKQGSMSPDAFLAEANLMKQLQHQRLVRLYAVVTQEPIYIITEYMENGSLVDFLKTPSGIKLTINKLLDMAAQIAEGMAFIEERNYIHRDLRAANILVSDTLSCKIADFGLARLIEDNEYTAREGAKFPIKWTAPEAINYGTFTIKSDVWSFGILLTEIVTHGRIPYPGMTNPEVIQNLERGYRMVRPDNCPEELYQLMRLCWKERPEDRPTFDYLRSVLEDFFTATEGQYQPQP

`C=CS(=O)(=O)c1ccc(Nc2nc(OCC3CCCCC3)c3nc[nH]c3n2)cc1` [NU6300, 6-(cyclohexylmethoxy)-N-(4-(vinylsulfonyl)phenyl)-9H-purin-2-amine]: the inhibition at 50 µM was determined as 43% in assay [1] (before washout, read-out: inhibition of phosphorylation of Rb at Thr821) and 33% in assay [1] (then 1-hr washout in drug-free media, read-out: inhibition of phosphorylation of Rb at Thr821 after washout). Besides, the remaining activity at 0.5 µM is 60% on Lck (setting [2]); 67% at Lck (setting [3]); 11% at MST2 (setting [2]); 38% on MST2 (setting [3]); 84% on PRK2 (setting [2]); 65% at PRK2 (setting [3]). For the same compound, on MST2 (Mst2, 4-hr pre-incubation vs usual format, 0.5 µM), the “additional loss of activity after pre-incubation” value is recorded as > 50%.
